Reference: ChEMBL document CHEMBL5096207, “Identification of a Hydroxypyrimidinone Compound (21) as a Potent APJ Receptor Agonist for the Potential Treatment of Heart Failure” (J Med Chem, 2021)

Columns and labels:
Apelin receptor = target: T1, Apelin receptor (Homo sapiens, UniProt P35414); assay: Agonist activity at human APJ expressed in HEK293 cells assessed as inhibition of forskolin-stimulated cAMP production incubated for 60 mins by fluorescence based analysis
T1 sequence (P35414 whole entry): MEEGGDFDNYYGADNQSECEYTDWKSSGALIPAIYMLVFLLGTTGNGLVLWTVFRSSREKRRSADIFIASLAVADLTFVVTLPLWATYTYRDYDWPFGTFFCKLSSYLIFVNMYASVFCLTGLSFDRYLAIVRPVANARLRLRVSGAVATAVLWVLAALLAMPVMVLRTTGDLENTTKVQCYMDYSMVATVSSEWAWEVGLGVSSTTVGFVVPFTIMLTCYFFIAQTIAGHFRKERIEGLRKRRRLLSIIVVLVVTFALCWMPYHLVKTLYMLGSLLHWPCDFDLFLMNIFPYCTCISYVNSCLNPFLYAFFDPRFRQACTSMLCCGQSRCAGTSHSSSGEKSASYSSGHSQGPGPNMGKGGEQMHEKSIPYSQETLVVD

[1] = Volume of distribution in overnight fasted Sprague-Dawley rat at 1 mg/kg, po or 1 mg/kg, iv measured upto 48 hrs by LC/MS/MS analysis; format: ADME, organism-based; settings: in vivo
[2] = Cmax in overnight fasted Sprague-Dawley rat at 1 mg/kg, po or 1 mg/kg, iv measured upto 48 hrs by LC/MS/MS analysis; format: ADME, organism-based; set-up: time < 48 hrs, dose 1 mg/kg, route po; settings: in vivo
[3] = AUC (0 to 24hrs) in overnight fasted Sprague-Dawley rat at 1 mg/kg, po or 1 mg/kg, iv measured upto 48 hrs by LC/MS/MS analysis; format: ADME, organism-based; set-up: time < 48 hrs, dose 1 mg/kg, route po; settings: in vivo
[4] = Oral bioavailability in overnight fasted Sprague-Dawley rat at 1 mg/kg measured upto 48 hrs by LC/MS/MS analysis; format: ADME, organism-based; settings: in vivo
[5] = Volume of distribution at steady state in overnight fasted cynomolgus monkey at 3 mg/kg, po or 1 mg/kg, iv measured upto 72 hrs by LC/MS/MS analysis; format: ADME, organism-based, Macaca fascicularis; settings: in vivo
[6] = Cmax in overnight fasted cynomolgus monkey at 3 mg/kg, po or 1 mg/kg, iv measured upto 72 hrs by LC/MS/MS analysis; format: ADME, organism-based, Macaca fascicularis; set-up: time < 72 hrs, dose 3 mg/kg, route po; settings: in vivo
[7] = AUC (0 to 24hrs) in overnight fasted cynomolgus monkey at 3 mg/kg, po or 1 mg/kg, iv measured upto 72 hrs by LC/MS/MS analysis; format: ADME, organism-based, Macaca fascicularis; set-up: time < 72 hrs, dose 3 mg/kg, route po; settings: in vivo
[8] = Oral bioavailability in overnight fasted cynomolgus monkey at 3 mg/kg measured upto 72 hrs by LC/MS/MS analysis; format: ADME, organism-based, Macaca fascicularis; settings: in vivo
[9] = Volume of distribution at steady state in dog at 1 mg/kg, po or 1 mg/kg, iv by LC/MS/MS analysis; format: ADME, organism-based, Canis lupus familiaris; settings: in vivo
[10] = Cmax in dog at 1 mg/kg, po or 1 mg/kg, iv by LC/MS/MS analysis; format: ADME, organism-based, Canis lupus familiaris; set-up: dose 1 mg/kg, route po; settings: in vivo
[11] = AUC (0 to 24hrs) in dog at 1 mg/kg, po or 1 mg/kg, iv by LC/MS/MS analysis; format: ADME, organism-based, Canis lupus familiaris; set-up: dose 1 mg/kg, route po; settings: in vivo
[12] = Oral bioavailability in dog at 1 mg/kg by LC/MS/MS analysis; format: ADME, organism-based, Canis lupus familiaris; settings: in vivo
[13] = Drug excretion in Sprague-Dawley rat urine at 1 mg/kg, iv; format: ADME, organism-based; settings: read-out: Drug excretion
[14] = Drug excretion in dog urine at 1 mg/kg, iv; format: ADME, organism-based, Canis lupus familiaris; settings: read-out: Drug excretion
[15] = Toxicity in Sprague-Dawley rat assessed as hemodynamic reponse by measuring increase in heart rate at 0.001 to 0.1 mg/kg/min, iv infusion administered for 15 mins by PV-loop based analysis; format: organism-based; settings: in vivo, dose 0.001-0.1 mg/kg/min

With `CCOCc1nc(=O)c(C(=O)N2CC[C@H](c3ccccc3)C2)c(O)n1-c1c(OC)cccc1OC` as the compound, how does the EC50 (Apelin receptor) read?
The EC50 was 0.4 nM.

With `CCc1cccc(CC)c1-n1c(-c2ccn(C)n2)nc(=O)c(C(=O)N2CC[C@@H](c3ncc(Cl)cc3F)C2)c1O` as the compound, how does the Vdss [1] read?
Its Vdss is 1.6 L/kg.

And the Cmax [2]?
The Cmax was 2200 nM.

What about the AUC(0-t) at 48 h [3] of the same compound?
The AUC(0-t) at 48 h was 3.7 µM·h.

And the bioavailability [4]?
Its bioavailability is 54%.

And the Vdss [5]?
Its Vdss is 0.2 L/kg.

What about the Cmax [6] of the same compound?
Its Cmax is 1400 nM.

And the AUC(0-t) at 72 h [7]?
The AUC(0-t) at 72 h was 2.5 µM·h.

What about the bioavailability [8] of the same compound?
Its bioavailability is 27%.

What about the Vdss [9] of the same compound?
Its Vdss is 0.2 L/kg.

What about the Cmax [10] of the same compound?
The Cmax was 6500 nM.

What about the AUC(0-t) [11] of the same compound?
Its AUC(0-t) is 14.2 µM·h.

And the bioavailability [12]?
The bioavailability was 76%.

And the dose excreted [13]?
The dose excreted was 4%.

What about the dose excreted [14] of the same compound?
Its dose excreted is less than 4%.

And the Activity [15]?
Its Activity is “Non-Toxic”.

Which Activity [15] does the source give for `CC(CCc1ccc(O)cc1)NCCc1ccc(O)c(O)c1` (configuration not stated) [DOBUTAMINE] here?
The Activity was “Toxic”.
